Assay results published in patent US20110077294A1, “R-(-) / S-(+)-7-[3-N SUBSTITUTED AMINO-2 HYDROXYPROPOXY] FLAVONES” (priority 2006, published 2011).

How the values were obtained:
Format in all cases: in vivo
[1] = test system: C57BL/KsBom-db/db mice; assay: Blood glucose profile of db/db mice during daily treatment (antihyperglycemic activity); details: for Blood glucose % change compared to control, day 1: day 1, vs sham; for Blood glucose % change compared to control, day 2: day 2, vs sham; for Blood glucose % change compared to control, day 3: day 3, vs sham; for Blood glucose % change compared to control, day 4: day 4, vs sham; for Blood glucose % change compared to control, day 5: day 5, vs sham; for Blood glucose % change compared to control, day 6: day 6, vs sham; for Blood glucose % change compared to control, day 7: day 7, vs sham; for Blood glucose % change compared to control, day 8: day 8, vs sham; for Blood glucose % change compared to control, day 9: day 9, vs sham
Experimental: (§1) C57BL/KsBom-db/db mice (12-18 weeks old), weighing around 35+g bred in the animal house of CDRI, Lucknow, were used in the present experiments. The mice were housed in groups of 3 to 5 (same sex) in a room controlled for temperature (23±2.0 ° C.) and 12/12 hours light/dark cycle (lights on at 6.00 am). Body weight of each animal was measured daily from day 1 to day 10 of the experiment. All animals had free access to fresh water and normal pellet diet except on the day of the postprandial protocol (day 6) and during the overnight fast before the OGTT on day 10. The animals always had access to water during experimental periods. Blood glucose was checked every morning up till day 10. On day 10 an oral glucose tolerance test (OGTT) was performed after an overnight fasting. Blood glucose was measured at −30.0 min and test compounds were administered. The blood glucose was again measured at 0 min just post treatment and at this juncture glucose solution was given at a dose of 3 gm/kg to all the groups including the vehicle treated group. The blood glucose levels were checked at 30 min, 60 min, 90 min and 120 min post glucose administration. The data was analyzed for its significance on Prism software.

[2] = test system: C57BL/KsBom-db/db mice; assay: Serum lipid profile of treated db/db mice (antidyslipidemic activity); details: 25 mg/kg; for Cholesterol % change compared to control / HDL-Chol % change compared to control / Triglycerides % change compared to control: vs sham
Experimental: as §1

[3] = test system: C57BL/KsBom-db/db mice; assay: Oral glucose tolerance test (OGTT) on day 10 in db/db mice; details: 25 mg/kg; for Blood glucose profile, 0 min post glucose load / Blood glucose % change compared to control, 0 min post glucose load: OGTT day 10, 0 min; for Blood glucose % change compared to control, 0 min post glucose load / Blood glucose % change compared to control, 30 min post glucose load / Blood glucose % change compared to control, 60 min post glucose load / Blood glucose % change compared to control, 90 min post glucose load / Blood glucose % change compared to control, 120 min post glucose load / Blood glucose % change compared to control, −30 min post glucose load: vs sham; for Blood glucose profile, 30 min post glucose load / Blood glucose % change compared to control, 30 min post glucose load: OGTT day 10, 30 min; for Blood glucose profile, 60 min post glucose load / Blood glucose % change compared to control, 60 min post glucose load: OGTT day 10, 60 min; for Blood glucose profile, 90 min post glucose load / Blood glucose % change compared to control, 90 min post glucose load: OGTT day 10, 90 min; for Blood glucose profile, 120 min post glucose load / Blood glucose % change compared to control, 120 min post glucose load: OGTT day 10, 120 min; for Blood glucose profile, −30 min post glucose load / Blood glucose % change compared to control, −30 min post glucose load: OGTT day 10, −30 min
Experimental: as §1

[4] = test system: C57BL/KsBom-db/db mice; assay: Serum lipid profile of treated db/db mice (antidyslipidemic activity); details: db/db mice, test dose 25 mg/kg

Compound: CC(C)NCC(O)COc1ccc2c(=O)cc(-c3cc(O)cc(O)c3)oc2c1 (stereo in doubt) [S-002-857 (R), (R)-(−)-7-(2-Hydroxy-3-isopropylaminopropoxy)-3′,5′-dihydroxy flavone]
- blood glucose profile compared to sham treated (in words) ([1]; 25 mg/kg): marginal fall in blood glucose profile
- Blood glucose, day 1 post treatment ([1]; 25 mg/kg): 12.5 ± 2.55 mM
- Blood glucose % change compared to control, day 1 ([1]; 25 mg/kg): 0.0%
- Blood glucose, day 2 post treatment ([1]; 25 mg/kg): 12.3 ± 2.67 mM
- Blood glucose % change compared to control, day 2 ([1]; 25 mg/kg): −1.25%
- Blood glucose, day 3 post treatment ([1]; 25 mg/kg): 12.1 ± 2.02 mM
- Blood glucose % change compared to control, day 3 ([1]; 25 mg/kg): −3.28%
- Blood glucose, day 4 post treatment ([1]; 25 mg/kg): 11.5 ± 1.86 mM
- Blood glucose % change compared to control, day 4 ([1]; 25 mg/kg): −11.5%
- Blood glucose, day 5 post treatment ([1]; 25 mg/kg): 11.9 ± 2.74 mM
- Blood glucose % change compared to control, day 5 ([1]; 25 mg/kg): −13.1%
- Blood glucose, day 6 post treatment ([1]; 25 mg/kg): 11.6 ± 2.73 mM
- Blood glucose % change compared to control, day 6 ([1]; 25 mg/kg): −10.7%
- Blood glucose, day 7 post treatment ([1]; 25 mg/kg): 11.7 ± 1.78 mM
- Blood glucose % change compared to control, day 7 ([1]; 25 mg/kg): −22.0%
- Blood glucose, day 8 post treatment ([1]; 25 mg/kg): 11.0 ± 0.35 mM
- Blood glucose % change compared to control, day 8 ([1]; 25 mg/kg): −13.4%
- Blood glucose, day 9 post treatment ([1]; 25 mg/kg): 11.5 ± 1.00 mM
- Blood glucose % change compared to control, day 9 ([1]; 25 mg/kg): −14.0%
- Blood glucose, day 10 post treatment ([1]; 25 mg/kg, day 10): 11.9 ± 5.21 mM
- Blood glucose % change compared to control, day 10 ([1]; 25 mg/kg, day 10, vs sham): −8.30%
- Serum lipid profile: Cholesterol [2]: 160 ± 6.66 mg/dL
- Serum lipid profile: HDL-Chol [2]: 59.0 ± 2.65 mg/dL
- Serum lipid profile: Triglycerides [2]: 130 ± 3.06 mg/dL
- serum cholesterol, triglycerides (lipid profile) compared to sham treated (in words) [2]: no statistically significant difference
- Cholesterol % change compared to control [2]: −6.18%
- HDL-Chol % change compared to control [2]: +5.35%
- Triglycerides % change compared to control [2]: −1.72%
- oral glucose tolerance compared to sham treated (in words) [3]: slight improvement in glucose tolerance
- Blood glucose profile, 0 min post glucose load [3]: 16.3 ± 3.91 mM
- Blood glucose % change compared to control, 0 min post glucose load [3]: −7.05%
- Blood glucose profile, 30 min post glucose load [3]: 27.6 ± 1.53 mM
- Blood glucose % change compared to control, 30 min post glucose load [3]: −16.7%
- Blood glucose profile, 60 min post glucose load [3]: 24.4 ± 2.99 mM
- Blood glucose % change compared to control, 60 min post glucose load [3]: −10.0%
- Blood glucose profile, 90 min post glucose load [3]: 20.6 ± 2.08 mM
- Blood glucose % change compared to control, 90 min post glucose load [3]: −7.39%
- Blood glucose profile, 120 min post glucose load [3]: 16.0 ± 1.73 mM
- Blood glucose % change compared to control, 120 min post glucose load [3]: −14.3%
- Blood glucose profile, −30 min post glucose load [3]: 11.8 ± 5.21 mM
- Blood glucose % change compared to control, −30 min post glucose load [3]: −8.31%

Compound: CC(C)(C)NC[C@@H](O)COc1ccc2c(=O)cc(-c3cc(OCc4ccccc4)cc(OCc4ccccc4)c3)oc2c1 [S-002-853 (R), (R)-(−)-7-(3-tert-butylamino-2-hydroxypropoxy)-3′,5′-dibenzyloxyflavone]
- antihyperglycemic and antidyslipidemic/antihyperlipidemic activity (in words) ([1]; 25 mg/kg): insignificant antihyperglycemic or antihyperlipidemic effects
- blood glucose profile compared to sham treated (in words) ([1]; 25 mg/kg): no significant difference in the blood glucose profile between the two groups at any day
- Blood glucose, day 1 post treatment ([1]; 25 mg/kg): 12.0 ± 2.52 mM
- Blood glucose % change compared to control, day 1 ([1]; 25 mg/kg): +1.1%
- Blood glucose, day 2 post treatment ([1]; 25 mg/kg): 12.4 ± 2.65 mM
- Blood glucose % change compared to control, day 2 ([1]; 25 mg/kg): −31.9%
- Blood glucose, day 3 post treatment ([1]; 25 mg/kg): 10.3 ± 1.33 mM
- Blood glucose % change compared to control, day 3 ([1]; 25 mg/kg): −24.1%
- Blood glucose, day 4 post treatment ([1]; 25 mg/kg): 13.3 ± 4.61 mM
- Blood glucose % change compared to control, day 4 ([1]; 25 mg/kg): −18.1%
- Blood glucose, day 5 post treatment ([1]; 25 mg/kg): 12.3 ± 4.32 mM
- Blood glucose % change compared to control, day 5 ([1]; 25 mg/kg): −24.0%
- Blood glucose, day 6 post treatment ([1]; 25 mg/kg): 12.1 ± 3.82 mM
- Blood glucose % change compared to control, day 6 ([1]; 25 mg/kg): −19.8%
- Blood glucose, day 7 post treatment ([1]; 25 mg/kg): 14.5 ± 5.49 mM
- Blood glucose % change compared to control, day 7 ([1]; 25 mg/kg): −31.9%
- Blood glucose, day 8 post treatment ([1]; 25 mg/kg): 13.4 ± 4.54 mM
- Blood glucose % change compared to control, day 8 ([1]; 25 mg/kg): −35.4%
- Blood glucose, day 9 post treatment ([1]; 25 mg/kg): 13.5 ± 4.66 mM
- Blood glucose % change compared to control, day 9 ([1]; 25 mg/kg): −38.3%
- Comparative antihyperglycemic activity: Average Fall ([1]; test dose 25 mg/kg, day given in brackets): 38.3%
- HDL-cholesterol levels compared to sham treated (in words) [2]: no significant difference in the HDL-cholesterol levels
- Serum lipid profile: Cholesterol [2]: 144.0 ± 7.37 mg/dL
- Serum lipid profile: HDL-Chol [2]: 58.0 ± 6.24 mg/dL
- Serum lipid profile: Triglycerides [2]: 132.0 ± 11.5 mg/dL
- serum cholesterol, triglycerides (lipid profile) compared to sham treated (in words) [2]: no significant lowering in either the case of serum cholesterol or triglycerides
- Cholesterol % change compared to control [2]: −3.72%
- HDL-Chol % change compared to control [2]: +8.06%
- Triglycerides % change compared to control [2]: −9.72%
- Comparative antihyperlipidemic activity: HDL-C [4]: +8.06^ns
- Comparative antihyperlipidemic activity: T-Chol [4]: −3.72^ns
- Comparative antihyperlipidemic activity: TG [4]: −9.72^ns
- oral glucose tolerance compared to sham treated (in words) [3]: no difference in oral glucose tolerance curve
- Blood glucose profile, 0 min post glucose load [3]: 20.3 ± 4.74 mM
- Blood glucose % change compared to control, 0 min post glucose load [3]: −3.30%
- Blood glucose profile, 30 min post glucose load [3]: 34.3 ± 16.9 mM
- Blood glucose % change compared to control, 30 min post glucose load [3]: +3.70%
- Blood glucose profile, 60 min post glucose load [3]: 25.9 ± 9.75 mM
- Blood glucose % change compared to control, 60 min post glucose load [3]: 0.00%
- Blood glucose profile, 90 min post glucose load [3]: 24.5 ± 9.13 mM
- Blood glucose % change compared to control, 90 min post glucose load [3]: +17.0%
- Blood glucose profile, 120 min post glucose load [3]: 23.0 ± 10.0 mM
- Blood glucose % change compared to control, 120 min post glucose load [3]: +24.9%
- Blood glucose profile, −30 min post glucose load [3]: 13.6 ± 0.46 mM
- Blood glucose % change compared to control, −30 min post glucose load [3]: 17.4%
